Data as given in patent publication EP0094564A2, “Azolyl-methyl oxiranes, their preparation and use as medicaments and plant protecting agents” (BASF Aktiengesellschaft, priority 1982, dated 1983).

Tests used:
Chaetomium globosum = test: Versuch 6: fungal growth on malt extract agar containing active ingredient; format: cell-based; parameters: key: 0 = kein Pilzwachstum (Pilzmyzel abgetötet); 1 = geringes Pilzwachstum (bis 1/3 der Agaroberfläche bewachsen); 3 = mittleres Pilzwachstum (bis 2/3 der Agaroberfläche bewachsen); 5 = ungehemmtes Pilzwachstum (gesamte Agaroberfläche bewachsen); details: 40 ppm in 5 % malt extract agar; 5 days at 25 °C; growth score
From the text: (§1) Die Wirkstoffe werden in Aceton gelöst, in Mengen von 40 ppm einem verflüssigten 5 %igen Malzextraktagar zugesetzt. Der Agar wird in Petrischalen ausgegossen und nach dem Erstarren werden die fungizidhaltigen Nähragarplatten zentral mit Myzel der holzzerstörenden Pilze Coniophora puteana und Trametes versicolor, des Moderfäule und Stockflecken verursachenden Pilzes Chaetomium globosum sowie mit Sporen des grünen Holzschimmels Trichoderma viride beimpft.
(§2) Nach fünftägiger Bebrütung der Schalen bei 25 °C wird die Entwicklung der Pilzkolonien auf dem Nährboden im Vergleich mit der Kontrolle (ohne Wirkstoff-Zusatz) beurteilt: • 0 = kein Pilzwachstum (Pilzmyzel abgetötet) • 1 = geringes Pilzwachstum (bis 1/3 der Agaroberfläche bewachsen) • 3 = mittleres Pilzwachstum (bis 2/3 der Agaroberfläche bewachsen) • 5 = ungehemmtes Pilzwachstum (gesamte Agaroberfläche bewachsen)

Trametes versicolor = test: as above; format: cell-based; parameters: key: 0 = kein Pilzwachstum (Pilzmyzel abgetötet); 1 = geringes Pilzwachstum (bis 1/3 der Agaroberfläche bewachsen); 3 = mittleres Pilzwachstum (bis 2/3 der Agaroberfläche bewachsen); 5 = ungehemmtes Pilzwachstum (gesamte Agaroberfläche bewachsen); details: 40 ppm in 5 % malt extract agar; 5 days at 25 °C; growth score
From the text: as §1, §2

Coniophora puteana = test: as above; format: cell-based; parameters: key: 0 = kein Pilzwachstum (Pilzmyzel abgetötet); 1 = geringes Pilzwachstum (bis 1/3 der Agaroberfläche bewachsen); 3 = mittleres Pilzwachstum (bis 2/3 der Agaroberfläche bewachsen); 5 = ungehemmtes Pilzwachstum (gesamte Agaroberfläche bewachsen); details: 40 ppm in 5 % malt extract agar; 5 days at 25 °C; growth score
From the text: as §1, §2

Trichoderma viride = test: as above; format: cell-based; parameters: key: 0 = kein Pilzwachstum (Pilzmyzel abgetötet); 1 = geringes Pilzwachstum (bis 1/3 der Agaroberfläche bewachsen); 3 = mittleres Pilzwachstum (bis 2/3 der Agaroberfläche bewachsen); 5 = ungehemmtes Pilzwachstum (gesamte Agaroberfläche bewachsen); details: 40 ppm in 5 % malt extract agar; 5 days at 25 °C; growth score
From the text: as §1, §2

Pullularia pullulans = test: Versuch 5: filter paper disc inhibition zone test on malt extract agar; format: cell-based; details: 72 h, discs soaked with 0,2 ml of 200 ppm solution, 3 days at 22 to 24 °C, read-out: Wirksamkeit gegen Pullularia pullulans
Description: Filtrierpäpierscheiben mit einem Durchmesser von 13 mm und einer Stärke von 1 mm werden mit 0,2 ml Lösungen getränkt, die jeweils 200 Teile Wirkstoff je Million Teile Lösung (ppm) enthalten. Die Scheiben werden dann auf einem 2 %igen Malzextraktagar in Petrischalen gelegt, die zuvor getrennt mit Sporen des holzverfärbenden Pilzes Pullularia pullulans beimpft wurden. Anschließend werden die Schalen 3 Tage lang bei 22 bis 24 °C bebrütet. Nach dieser Zeit hat sich der Pilz in den Kontrollschalen sehr gut entwickelt.
Die fungizide Wirksamkeit der Wirkstoffe wird anhand der um die Filtrierpapierscheiben herum entstandenen pilzfreien Zonen (Hemmhöfe) wie folgt beurteilt: […]

[1] = system: Weizenmehltau (Erysiphe graminis var. tritici); test: Versuch 1: activity against wheat powdery mildew on wheat seedlings; format: in vivo; details: 0,025; 0,006; 0,0015 %ige Spritzbrühen; sprayed 24 h before inoculation; assessed after 7 days; value given as 'beispielsweise'
Description: Blätter von in Töpfen gewachsenen Weizenkeimlingen der Sorte "Jubilar" wurden mit wäßriger Spritzbrühe, die 80 % (Gew.%) Wirkstoff und 20 % Emulgiermittel in der Trockensubstanz enthielt, besprüht und 24 Stunden nach dem Antrocknen des Spritzbelages mit Oidien (Sporen) des Weizenmehltaus (Erysiphe graminis var. tritici) bestäubt. Die Versuchspflanzen wurden anschließend im Gewächshaus bei Temperaturen zwischen 20 und 22 °C und 75 bis 80 % relativer Luftfeuchtigkeit aufgestellt. Nach 7 Tagen wurde das Ausmaß der Mehltauentwicklung ermittelt.

[2] = system: Weizenbraunrost (Puccinia recondita); test: Versuch 2: activity against wheat brown rust on wheat seedlings; format: in vivo; details: 0,025; 0,006; 0,0015 %ige Spritzbrühen; sprayed 24 h after inoculation; assessed after 8 days; value given as 'beispielsweise'
Description: Blätter von in Töpfen gewachsenen Weizensämlingen der Sorte "Jubilar" wurden mit Sporen des Braunrostes (Puccinia recondita) bestäubt. Danach wurden die Töpfe für 24 Stunden bei 20 bis 22°C in eine Kammer mit hoher Luftfeuchtigkeit (90 bis 95 %) gestellt. Während dieser Zeit keimten die Sporen aus und die Keimschläuche drangen in das Blattgewebe ein. Die infizierten Pflanzen wurden anschließend mit wäßrigen Spritzbrühen, die 80 % Wirkstoff und 20 % Emulgiermittel in der Trockensubstanz enthielten, tropfnaß gespritzt. Nach dem Antrocknen des Spritzbelages wurden die Versuchspflanzen im Gewächshaus bei Temperaturen zwischen 20 und 22°C und 65 bis 70 % relativer Luftfeuchte aufgestellt. Nach 8 Tagen wurde das Ausmaß der Rostpilzentwicklung auf den Blättern ermittelt.

[3] = system: Gurkenmehltau (Erysiphe cichoracearum); test: Versuch 3: activity against cucumber powdery mildew on cucumber seedlings; format: in vivo; details: 0,025 %ige Spritzbrühe; sprayed about 20 h after inoculation; assessed after 21 days; value given as 'beispielsweise'
From the text: Blätter von in Töpfen gewachsenen Gurkenkeimlingen der Sorte "Chinesische Schlange" wurden im Zweiblattstadium mit einer Sporensuspension des Gurkenmehltaus (Erysiphe cichoracearum) besprüht. Nach etwa 20 Stunden wurden die Versuchspflanzen mit wäßriger Spritzbrühe, die 80 % Wirkstoff und 20 % Emulgiermittel in der Trockensubstanz enthielt, bis zur Tropfnässe besprüht. Nach dem Antrocknen des J Spritzbelages wurden sie anschließend im Gewächshaus bei Temperaturen zwischen 20 und 22^00 und 70 bis 80 % relativer Luftfeuchtigkeit aufgestellt. Zur Beurteilung der Wirksamkeit der neuen Stoffe wurde das Ausmaß der Pilzentwicklung nach 21 Tagen beurteilt.

Botrytis cinerea = test: Versuch 4: activity against Botrytis cinerea on paprika seedlings; format: in vivo; details: 0,05 %ige Spritzbrühe; sprayed before inoculation; assessed after 5 days; value given as 'beispielsweise'
From the text: Paprikasämlinge der Sorte "Neusiedler Ideal Elite" wurden, nachdem sich 4 bis 5 Blätter gut entwickelt hatten, mit wäßrigen Suspensionen, die 80 % Wirkstoff und 20 % Emulgiermittel in der Trockensubstanz enthielten, tropfnaß gespritzt. Nach dem Antrocknen des Spritzbelages wurden die Pflanzen mit einer Konidienaufschwemmung des Pilzes Botrytis cenerea besprüht und bei 22 bis 24 C in eine Kammer mit hoher Luftfeuchtigkeit gestellt. Nach 5 Tagen hatte sich die Krankheit auf den unbehandelten Kontrollpflanzen so stark entwickelt, daß die entstandenen Blattnekrosen den überwiegenden Teil der Blätter bedeckten.

Compound | Wirksamkeit gegen Chaetomium globosum (Chaetomium globosum) | Wirksamkeit gegen Trametes versicolor (Trametes versicolor) | Wirksamkeit gegen Coniophora puteana (Coniophora puteana) | Wirksamkeit gegen Trichoderma viride (Trichoderma viride) | zone of inhibition at 200 ppm (Pullularia pullulans) [mm] | fungizide Wirkung gegen Weizenmehltau [1] [%] | fungizide Wirkung gegen Weizenbraunrost [2] [%] | fungizide Wirkung gegen Gurkenmehltau [3] [%] | fungizide Wirkung gegen Botrytis cinerea an Paprika (Botrytis cinerea) [%]
Fc1ccc(C2OC2(Cn2cncn2)c2ccc(Cl)cc2)cc1 (single isomer, unassigned) [Beispiel 50] | 0 | 0 | 0 | 0 | > 6 |  |  |  | 
Clc1ccc(C2OC2(Cn2cncn2)c2ccc(-c3ccccc3)cc2)cc1 (single isomer, unassigned) [Beispiel 42] | 0 | 0 | 0 | 0 | > 6 | 100 | 100 | 100 | 97
CC1(Cn2cncn2)OC1c1ccc(Cl)cc1Cl (single isomer, unassigned) [Beispiel 22] | 1 | 0 | 1 | 1 | > 6 |  |  |  | 
